Test results published in patent publication US20080171783A1, “COMPOSITIONS AND METHODS FOR TREATING HYPERPROLIFERATIVE DISEASE” (Migenix Inc., priority 2006, published 2008).

Experiments:
Calf polymerase alpha = biological target: T1, Calf polymerase alpha (Bos taurus, UniProt A0AAA9TD94); assay: Calf polymerase alpha inhibition (Replizyme kit); format: biochemical; details: for IC50: dose response
T1 construct: purchased Replizyme Ltd (Heslington, York, UK)
T1 sequence (A0AAA9TD94 1-1441): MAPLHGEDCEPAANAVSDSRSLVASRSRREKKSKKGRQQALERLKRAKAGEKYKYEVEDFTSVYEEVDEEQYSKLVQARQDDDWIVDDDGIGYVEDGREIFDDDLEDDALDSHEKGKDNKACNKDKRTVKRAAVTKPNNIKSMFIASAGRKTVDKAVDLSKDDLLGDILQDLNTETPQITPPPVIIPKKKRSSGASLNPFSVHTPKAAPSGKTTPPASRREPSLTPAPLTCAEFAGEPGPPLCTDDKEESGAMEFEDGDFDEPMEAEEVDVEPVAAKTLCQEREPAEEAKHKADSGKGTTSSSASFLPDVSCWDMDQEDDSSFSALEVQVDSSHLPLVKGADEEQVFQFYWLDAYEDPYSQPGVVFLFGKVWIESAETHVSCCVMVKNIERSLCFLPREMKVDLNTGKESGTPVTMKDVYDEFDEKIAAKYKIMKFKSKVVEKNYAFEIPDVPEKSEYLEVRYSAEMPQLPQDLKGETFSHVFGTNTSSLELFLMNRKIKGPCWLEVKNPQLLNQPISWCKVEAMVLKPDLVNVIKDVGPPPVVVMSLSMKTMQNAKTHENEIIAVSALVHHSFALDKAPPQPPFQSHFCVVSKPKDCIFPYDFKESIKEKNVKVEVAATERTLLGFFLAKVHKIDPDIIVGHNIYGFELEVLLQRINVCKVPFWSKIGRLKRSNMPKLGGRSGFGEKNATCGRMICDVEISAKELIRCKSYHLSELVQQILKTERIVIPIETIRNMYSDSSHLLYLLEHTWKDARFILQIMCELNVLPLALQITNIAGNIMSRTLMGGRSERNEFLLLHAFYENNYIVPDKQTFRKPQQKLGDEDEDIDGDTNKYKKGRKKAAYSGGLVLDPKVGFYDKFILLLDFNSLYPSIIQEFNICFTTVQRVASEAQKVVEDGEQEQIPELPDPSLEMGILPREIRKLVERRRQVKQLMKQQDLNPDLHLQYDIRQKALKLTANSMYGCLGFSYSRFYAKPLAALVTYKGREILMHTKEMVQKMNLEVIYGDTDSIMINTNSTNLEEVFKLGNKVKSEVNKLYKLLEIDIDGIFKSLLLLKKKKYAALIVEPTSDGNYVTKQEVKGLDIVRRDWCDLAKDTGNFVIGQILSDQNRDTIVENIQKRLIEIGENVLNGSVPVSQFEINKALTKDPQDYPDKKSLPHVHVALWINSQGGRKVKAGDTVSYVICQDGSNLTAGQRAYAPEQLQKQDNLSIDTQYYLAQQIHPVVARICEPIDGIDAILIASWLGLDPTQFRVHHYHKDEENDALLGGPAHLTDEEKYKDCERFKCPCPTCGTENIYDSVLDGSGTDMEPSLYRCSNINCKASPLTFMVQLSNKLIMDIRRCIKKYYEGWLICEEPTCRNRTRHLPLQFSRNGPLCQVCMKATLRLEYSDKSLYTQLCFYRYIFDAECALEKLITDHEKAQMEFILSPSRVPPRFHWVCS
Protocol: (§1) Calf polymerase alpha and human polymerase alpha investigations were performed with a kit available from Replizyme Ltd (Heslington, York, UK).

human polymerase alpha = biological target: T2, human polymerase alpha (Homo sapiens, UniProt P09884); assay: Human polymerase alpha inhibition (Replizyme kit); format: biochemical; details: dose response
T2 construct: purchased Replizyme Ltd (Heslington, York, UK)
T2 sequence (P09884 1-1462): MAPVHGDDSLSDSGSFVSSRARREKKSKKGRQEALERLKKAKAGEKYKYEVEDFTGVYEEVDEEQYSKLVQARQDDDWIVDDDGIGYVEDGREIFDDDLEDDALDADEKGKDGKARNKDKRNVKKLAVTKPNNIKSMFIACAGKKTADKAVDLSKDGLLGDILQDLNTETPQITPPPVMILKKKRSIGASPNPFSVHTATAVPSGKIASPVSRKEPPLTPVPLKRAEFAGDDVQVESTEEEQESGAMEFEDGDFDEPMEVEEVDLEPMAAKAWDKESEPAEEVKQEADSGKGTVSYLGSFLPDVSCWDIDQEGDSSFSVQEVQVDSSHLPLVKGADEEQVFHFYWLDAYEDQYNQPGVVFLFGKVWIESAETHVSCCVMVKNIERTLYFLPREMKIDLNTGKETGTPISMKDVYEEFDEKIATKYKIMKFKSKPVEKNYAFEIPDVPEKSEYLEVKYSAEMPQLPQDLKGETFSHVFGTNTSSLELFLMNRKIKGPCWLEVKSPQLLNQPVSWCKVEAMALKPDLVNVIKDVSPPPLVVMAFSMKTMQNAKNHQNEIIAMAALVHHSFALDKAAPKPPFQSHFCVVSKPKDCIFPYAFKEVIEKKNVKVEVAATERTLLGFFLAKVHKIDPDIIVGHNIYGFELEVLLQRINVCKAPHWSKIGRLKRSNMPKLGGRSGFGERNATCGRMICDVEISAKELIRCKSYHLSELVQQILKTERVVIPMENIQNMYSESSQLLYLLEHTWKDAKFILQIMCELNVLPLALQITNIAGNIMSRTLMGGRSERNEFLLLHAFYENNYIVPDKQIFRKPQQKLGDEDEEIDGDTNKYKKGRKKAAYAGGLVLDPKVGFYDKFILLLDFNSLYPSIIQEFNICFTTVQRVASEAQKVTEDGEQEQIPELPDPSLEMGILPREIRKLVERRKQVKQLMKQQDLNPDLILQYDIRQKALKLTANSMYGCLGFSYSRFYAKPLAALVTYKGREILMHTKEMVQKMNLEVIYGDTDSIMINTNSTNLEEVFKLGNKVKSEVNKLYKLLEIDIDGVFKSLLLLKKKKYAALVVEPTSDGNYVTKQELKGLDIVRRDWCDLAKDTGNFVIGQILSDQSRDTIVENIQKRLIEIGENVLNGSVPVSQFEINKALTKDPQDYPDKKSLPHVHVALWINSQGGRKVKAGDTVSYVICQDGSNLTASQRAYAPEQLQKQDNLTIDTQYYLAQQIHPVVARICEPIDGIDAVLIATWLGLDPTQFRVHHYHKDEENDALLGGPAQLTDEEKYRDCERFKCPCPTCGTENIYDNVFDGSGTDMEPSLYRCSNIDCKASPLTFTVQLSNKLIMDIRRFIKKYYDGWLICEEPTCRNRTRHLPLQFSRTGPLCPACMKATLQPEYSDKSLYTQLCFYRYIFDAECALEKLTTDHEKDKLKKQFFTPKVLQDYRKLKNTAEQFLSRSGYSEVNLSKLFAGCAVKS
Protocol: as §1

[1] = Cytotoxicity Huh-7 cells (MTS/PMS); format: cell-based; details: human, 3-day incubation
Protocol: Cytotoxicity of compounds for use in treating hyperproliferative diseases or disorders was tested in Huh-7 cells using tetrazolium salt MTS combined with the electron acceptor PMS in a 96-well format. Six doses of each compound was tested, starting at about 1.2 μM to 0.4 μM serially diluted in a final 1% DMSO solution in DMEM/F12 media. Terfenadine was used as a positive control. Cells were seeded at 2.5×10^5 cells/mL in each well of the 96-well plates in a final volume of 0.1 mL, and then incubated at 37° C. in the presence of 5% CO2 overnight. Compounds (in media) were added the following day and the treated cells were incubated another 3-days at 37° C. in the presence of 5% CO2. After the 3-day incubation, 20 μL of MTS/PMS (3-(4,5-dimethylthiazol-2-yl)-5-(3-carboxymethoxy-phenyl)-2-(4-sulfophenyl)-2H-tetrazolium) was added to each well. After about a one to four hour incubation of MTS/PMS at 37° C. and 5% CO2—that is, until an OD490 absorbance of ≧0.6 for the wells containing cells with media only, the level of cytotoxicity at each concentration was calculated. […] Dose response results from the cytotoxicity assay (CC50) are provided in Table 4 in comparison with IC50 data (from Table 2)

[2] = at 10 μM, single point screening

| Compound | IC50 (human polymerase alpha) | inhibition at 10 µM (Calf polymerase alpha; [2]) | IC50 (Calf polymerase alpha) | CC50 at 3 days [1] | % Inhibition (Calf polymerase alpha; [2]) |
| --- | --- | --- | --- | --- | --- |
| Cc1ccc(NC(=O)[C@@H](CCCCN)NC(=O)Nc2ccc(OCc3ccccc3)cc2)cc1 [Compound 172, (R)-6-AMINO-2-[3-(4-BENZYLOXY-PHENYL)-UREIDO]-HEXANOIC ACID P-TOLYLAMIDE] |  | 60% | 7.3 µM | 26 µM |  |
| NCCCC[C@H](NC(=O)OCC1c2ccccc2-c2ccccc21)C(=O)Nc1ccc(CN)cc1 [Compound 228, (S)-[5-AMINO-1-(4-AMINOMETHYL-PHENYLCARBAMOYL)-PENTYL]-CARBAMIC ACID 9H-FLUOREN-9-YLMETHYL ESTER] |  |  | 5.5 µM | 36.7 µM |  |
| CC1CCC(NC(=O)[C@H](CCCCN)NC(=O)Nc2ccc(OCc3ccccc3)cc2)CC1 (stereo partly drawn) [Compound 264, (S)-6-AMINO-2-[3-(4-BENZYLOXY-PHENYL)-UREIDO]-HEXANOIC ACID (4-METHYL-CYCLOHEXYL)-AMIDE] |  | 41% | 16 µM | 26.6 µM | 35% |
| NCCCC[C@H](NC(=O)Nc1ccc(OCc2ccccc2)cc1)C(=O)NCc1ccco1 [Compound 302, (S)-6-AMINO-2-[3-(4-BENZYLOXY-PHENYL)-UREIDO]-HEXANOIC ACID (FURAN-2-YLMETHYL)-AMIDE] | 72 µM | 5% | > 30 µM | > 100 µM |  |
| Cc1ccc(NC(=O)[C@H](CCCCN)NC(=O)CNc2ccc(Oc3ccccc3)cc2)cc1 [Compound 368, (S)-6-AMINO-2-[2-(4-PHENOXY-PHENYLAMINO)-ACETYLAMINO]-HEXANOIC ACID P-TOLYLAMIDE] |  |  | 6 µM | 58 µM |  |

Further lines, with some results ahead:

| IC50 (human polymerase alpha) | Compound | inhibition at 10 µM (Calf polymerase alpha; [2]) | IC50 (Calf polymerase alpha) | CC50 at 3 days [1] | % Inhibition (Calf polymerase alpha; [2]) |
| --- | --- | --- | --- | --- | --- |
| 1.5 µM | NCCCC[C@H](NC(=O)Nc1ccc(-c2ccccc2)cc1)C(=O)Nc1ccc(C2CCCCC2)cc1 [Compound 119, (S)-6-AMINO-2-(3-BIPHENYL-4-YL-UREIDO)-HEXANOIC ACID (4-CYCLOHEXYL-PHENYL)-AMIDE] | 102% | 1.5 µM | 12.2 µM |  |
| 3 µM | Cc1ccc(NC(=O)[C@H](CCCCN)NC(=O)Nc2ccc3c(c2)Cc2ccccc2-3)cc1 [Compound 125, (S)-6-AMINO-2-[3-(9H-FLUOREN-2-YL)-UREIDO]-HEXANOIC ACID P-TOLYLAMIDE] | 100% | 2.8 µM | 9.7 µM |  |
| 8 µM | Cc1ccc(NC(=O)C[C@H](CCCCN)NC(=O)Nc2ccc(OCc3ccccc3)cc2)cc1 [Compound 246, (S)-7-AMINO-3-[3-(4-BENZYLOXY-PHENYL)-UREIDO]-HEPTANOIC ACID P-TOLYLAMIDE] | 46.6% | 9.8 µM | 45.9 µM |  |
| 68 µM | Cc1ccc(NC(=O)[C@H](CCCCN)NC(=O)Nc2ccc(OCc3ccccn3)cc2)cc1 [Compound 299, (S)-6-AMINO-2-{3-[4-(PYRIDIN-2-YLMETHOXY)-PHENYL]-UREIDO}-HEXANOIC ACID P-TOLYLAMIDE] | 16% | > 30 µM | > 100 µM |  |
